This passage reports melting point results from patent US6355640B1, “Pyrazolopyridine adenosine antagonists” (Fujisawa Pharmaceutical Co., Ltd., priority 1993, dated 2002).

For the molecule `CN1CCN(C(=O)CC2=C(n3nc(-c4c(-c5ccccc5)nn5ccccc45)ccc3=O)CCCC2)CC1.Cl` (hydrate or solvate), the melting point fell in the range of 188 to 191 °C.

In turn, `O=C(CC1=C(n2nc(-c3c(-c4ccccc4)nn4ccccc34)ccc2=O)CCCC1)N1CCCCC1` [Example 85, 3-[2-{2-(Piperidinocarbonyl)methyl-1-cyclohexenyl}-3-oxo-2,3-dihydropyridazin-6-yl]-2-phenylpyrazolo[1,5-a]-pyridine] showed a melting point of 184 to 185 °C.

Regarding `O=C1NCCCC1n1nc(-c2c(-c3ccccc3)nn3ccccc23)ccc1=O` (stereo not shown) [Example 26, 3-[2-(2-Oxopiperidin-3-yl)-3-oxo-2,3-dihydropyridazin-6-yl]-2-phenylpyrazolo[1,5-a]pyridine], the melting point was 140 to 145 °C (dec.).

The molecule `O=C(O)CNC(=O)CC1=C(n2nc(-c3c(-c4ccccc4)nn4ccccc34)ccc2=O)CCCC1` [Example 55, 3-[2-{2-(N-Carboxymethylcarbamoyl)methyl-1-cyclohexenyl}-3-oxo-2,3-dihydropyridazin-6-yl]-2-phenylpyrazolo[1,5-a]pyridine] gave a melting point of 190 to 192 °C.

The molecule `O=C(O)CN1CCC(n2nc(-c3c(-c4ccccc4)nn4ccccc34)ccc2=O)C1=O` (stereo not shown) [Example 42, 3-[2-(1-Carboxymethyl-2-oxo-pyrrolidin-3-yl)-3-oxo-2,3-dihydropyridazin-6-yl]-2-phenylpyrazolo[1,5-a]pyridine] had a melting point of 250 to 251 °C.

The molecule `COC(=O)[C@H]1CC[C@@H](n2nc(-c3c(-c4ccccc4)nn4ccccc34)ccc2=O)[C@H](O)C1` (relative stereo) [Example 8, 3-[2-{(1R*,2R*,4S*)-2-Hydroxy-4-methoxycarbonyl-cyclohexyl}-3-oxo-2,3-dihydropyridazin-6-yl]-2-phenylpyrazolo[1,5-a]pyridine] showed a melting point of 169 to 172 °C.

Molecule `COC(=O)/C=C1\CCCCC1n1nc(-c2c(-c3ccccc3)nn3ccccc23)ccc1=O` (stereo not shown) [Example 31, (E)-3-[2-(2-methoxycarbonylmethylenecyclohexyl)-3-oxo-2,3-dihydropyridazin-6-yl]-2-phenylpyrazolo[1,5-a]pyridine] showed a melting point of 156 to 157 °C.

`O=C(CC1=C(n2nc(-c3c(-c4ccccc4)nn4ccccc34)ccc2=O)CCCC1)N1CCOCC1` [Example 83, 3-[2-(2-Morpholinocarbonylmethyl-1-cyclohexenyl)-3-oxo-2,3-dihydropyridazin-6-yl]-2-phenylpyrazolo[1,5-a]-pyridine] showed a melting point of 202 to 204 °C.

Consider `O=c1ccc(-c2c(-c3ccccc3)nn3ccccc23)nn1C1=C(CCO)CCCC1` [Example 105, 3-[2-{2-(2-hydroxyethyl)-1-cyclohexenyl}-3-oxo-2,3-dihydropyridazin-6-yl]-2-phenylpyrazolo[1,5-a]pyridine], for which the melting point is 198 to 199 °C.

`O=c1ccc(-c2c(-c3ccccc3)nn3ccccc23)nn1[C@H]1CC[C@@H](C(=O)O)CC1` [Example 47(1), cis-3-[2-(4-Carboxycyclohexyl)-3-oxo-2,3-dihydropyridazin-6-yl]-2-phenylpyrazolo[1,5-a]pyridine] had a melting point of 296 to 298 °C.

The molecule `O=c1ccc(-c2c(-c3ccccc3)nn3ccccc23)nn1C1CCCCC1=Cc1nnn[nH]1` (stereo not shown) [Example 111, 3-[2-{2-(1H-tetrazol-5-yl)methylenecyclohexyl}-3-oxo-2,3-dihydropyridazin-6-yl]-2-phenylpyrazolo[1,5-a]pyridine] registered a melting point of 129 to 131 °C.

As for `CCOC(=O)C[C@H]1CCCC[C@H]1n1nc(-c2c(-c3ccccc3)nn3ccccc23)ccc1=O` (relative stereo) [Example 33(2), cis-3-[2-(2-Ethoxycarbonylmethylcyclohexyl)-3-oxo-2,3-dihydropyridazin-6-yl]-2-phenylpyrazolo[1,5-a]pyridine], the melting point lay within 151 to 152 °C.

As for `CC(C)(C)OC(=O)/C=C1/CCCCC1n1nc(-c2c(-c3ccccc3)nn3ccccc23)ccc1=O` (stereo not shown) [Example 98, (Z)-3-[2-{2-(tert-butoxycarbonyl-methylene)cyclohexyl}-3-oxo-2,3-dihydropyridazin-6-yl]-2-phenylpyrazolo[1,5-a]pyridine], the melting point lay within 171 to 172 °C.

`O=C1CCCCC1Oc1ccc(-c2c(-c3ccccc3)nn3ccccc23)nn1` (single isomer, unassigned) [Example 2 (less polar compound), 3-[3-(2-Oxocyclohexyl)oxypyridazin-6-yl]-2-phenylpyrazolo[1,5-a]pyridine] gave a melting point of 214 to 216 °C.

For the molecule `O=C(O)[C@H]1CCC[C@H](n2nc(-c3c(-c4ccccc4)nn4ccccc34)ccc2=O)C1` (relative stereo) [Example 41, trans-3-(2-(3-Carboxycyclohexyl)-3-oxo-2,3-dihydropyridazin-6-yl]-2-phenylpyrazolo[1,5-a]pyridine], the melting point fell in the range of 218 to 222 °C.

As to `O=c1ccc(-c2c(-c3ccccc3)nn3ccccc23)nn1-c1ccccc1` [Example 99, 3-(2-phenyl-3-oxo-2,3-dihydropyridazin-6-yl)-2-phenylpyrazolo[1,5-a]pyridine], the melting point was 170 °C.

`CON=C1CCCCC1n1nc(-c2c(-c3ccccc3)nn3ccccc23)ccc1=O` (stereo not shown) [Example 90, 3-[2-{2-(Methoxyimino)cyclohexyl}-3-oxo-2,3-dihydropyridazin-6-yl]-2-phenylpyrazolo[1,5-a]pyridine] registered a melting point of 85 to 87 °C.

`N#C/C=C1\CCCCC1n1nc(-c2c(-c3ccccc3)nn3ccccc23)ccc1=O` (stereo not drawn) [Example 96 (E)-isomer, (E)-3-[2-{2-Cyanomethylenecyclohexyl}-3-oxo-2,3-dihydropyridazin-6-yl]-2-phenylpyrazolo[1,5-a]pyridine] registered a melting point of 174 to 175 °C.

`O=c1ccc(-c2c(-c3ccccc3)nn3ccccc23)nn1C1CCCC(O)C1` (stereo not shown) [Example 104, 3-[2-(3-hydroxycyclohexyl)-3-oxo-2,3-dihydropyridazin-6-yl]-2-phenylpyrazolo[1,5-a]pyridine] gave a melting point of 117 to 118 °C.

For `COc1ccccc1-n1nc(-c2c(-c3ccccc3)nn3ccccc23)ccc1=O` [Example 101, 3-[2-(2-Methoxyphenyl)-3-oxo-2,3-dihydropyridazin-6-yl]-2-phenylpyrazolo[1,5-a]pyridine], the melting point is 163 °C.

As to `O=c1ccc(-c2c(-c3ccccc3)nn3ccccc23)nn1[C@@H]1CCCC[C@@H]1O` (relative stereo) [Example 4, cis-3-[2-(2-hydroxycyclohexyl)-3-oxo-2,3-dihydropyridazin-6-yl]-2-phenylpyrazolo[1,5-a]pyridine], the melting point was in the range of 195 to 197 °C.

For the molecule `NC(=O)CC1=C(n2nc(-c3c(-c4ccccc4)nn4ccccc34)ccc2=O)CCCC1` [Example 69, 3-[2-(2-Carbamoylmethyl-1-cyclohexenyl)-3-oxo-2,3-dihydropyridazin-6-yl]-2-phenylpyrazolo[1,5-a]pyridine], the melting point was in the range of 204 to 205 °C.

In the case of `O=C1OCCC1n1nc(-c2c(-c3ccccc3)nn3ccccc23)ccc1=O` (stereo not shown) [Example 25, 3-[2-(2-Oxo-2,3,4,5-tetrahydrofuran-3-yl)-3-oxo-2,3-dihydropyridazin-6-yl]-2-phenylpyrazolo[1,5-a]pyridine], the melting point fell in the range of 179 to 180 °C.

`CC1CC(C)(C)N=C(/C=C2\CCCCC2n2nc(-c3c(-c4ccccc4)nn4ccccc34)ccc2=O)O1` (stereo not shown) [Example 97(1), (E)-3-[2-{2-(4,4,6-Trimethyl-5,6-dihydro-4H-1,3-oxazin-2-yl)methylenecyclohexyl}-3-oxo-2,3-dihydropyridazin-6-yl]-2-phenylpyrazolo[1,5-a]pyridine] yielded a melting point of 156 to 158 °C.

In turn, `O=C1CCCC(n2nc(-c3c(-c4ccccc4)nn4ccccc34)ccc2=O)C1` (stereo not shown) [Example 102, 3-[2-(3-oxocyclohexyl)-3-oxo-2,3-dihydropyridazin-6-yl]-2-phenylpyrazolo[1,5-a]pyridine] came in with a melting point of 126 to 127 °C.

In turn, `O=C(O)C[C@@H]1CCCC[C@H]1n1nc(-c2c(-c3ccccc3)nn3ccccc23)ccc1=O` (relative stereo) [Example 39, trans-3-[2-(2-Carboxymethylcyclohexyl)-3-oxo-2,3-dihydropyridazin-6-yl]-2-phenylpyrazolo[1,5-a]pyridine] gave a melting point of 238 to 240 °C.

As for `O=C(O)[C@@H]1CC[C@H](n2nc(-c3c(-c4ccccc4)nn4ccccc34)ccc2=O)C(=O)C1` (relative stereo) [Example 13, cis-3-[2-(4-carboxy-2-oxocyclohexyl)-3-oxo-2,3-dihydropyridazin-6-yl]-2-phenylpyrazolo[1,5-a]pyridine], the melting point lay within 186 to 188 °C.

Regarding `NN=C1CCCCC1n1nc(-c2c(-c3ccccc3)nn3ccccc23)ccc1=O` (stereo not shown) [Example 88, 3-[2-(2-Hydrazonocyclohexyl)-3-oxo-2,3-dihydropyridazin-6-yl]-2-phenylpyrazolo[1,5-a]pyridine], the melting point fell in the range of 161 to 162 °C.

Molecule `O=C(O)CCCNC(=O)CC1=C(n2nc(-c3c(-c4ccccc4)nn4ccccc34)ccc2=O)CCCC1` [Example 46, 3-[2-(2-(N-(3-Carboxypropyl)carbamoyl)methyl-1-cyclohexenyl)-3-oxo-2,3-dihydropyridazin-6-yl]-2-phenylpyrazolo[1,5-a]pyridine] registered a melting point of 92.5 to 93 °C.

`O=C(CCC1=C(n2nc(-c3c(-c4ccccc4)nn4ccccc34)ccc2=O)CCCC1)OCc1ccccc1` [Example 66, 3-[2-{2-(2-benzyloxycarbonylethyl)-1-cyclohexenyl}-3-oxo-2,3-dihydropyridazin-6-yl]-2-phenylpyrazolo[1,5-a]pyridine] showed a melting point of 111 to 113 °C.

`O=C(CC1=C(n2nc(-c3c(-c4ccccc4)nn4ccccc34)ccc2=O)CCCC1)N1CCN(C(c2ccccc2)(c2ccccc2)c2ccccc2)CC1` [Example 82, 3-[2-{2-(4-Triphenylmethylpiperazin-1-ylcarbonyl)methyl-1-cyclohexenyl}-3-oxo-2,3-dihydropyridazin-6-yl]-2-phenylpyrazolo[1,5-a]pyridine] showed a melting point of 249.5 to 250.5 °C.

For orientation: melting point means the temperature of the solid-liquid transition.
